From patent US11760764B2, “Methods and compositions for targeting PD-L1” (Aligos Therapeutics, Inc., priority 2020, dated 2023)
pIC50: −log10 of the molar value.

Target: PD-1/PD-L1 interaction (PDL1-6×His protein, PD1-Fc-Avi-Biotin protein) (Homo sapiens, UniProt Q9NZQ7)
Assay: PDL1/PD1 Binding Assay
Conditions: Table C; 0.3 nM PDL1, 2.5 nM PD1; read-out: PD-1/PD-L1 PPI IC50
Description: Compounds to be tested were serially diluted in DMSO, and further diluted in assay buffer (25 mM Hepes pH 7.4, 150 mM NaCl, 0.005% Tween 20, BSA 0.01%). Diluted compounds were added to the wells with final concentration of DMSO at 1%. PDL1-6×His protein was added to the wells, mixed well with compound. The plates were incubated for 30 min at room temperature. PD1-Fc-Avi-Biotin protein was added to the wells. […] After a binding time of 30 min at room temperature, Anti-6×His Acceptor beads (final concentration 20 ug/ml) were added to the wells, and the incubation continued for 1 h. Streptavidin Donor beads (final concentration 20 ug/mL) were added at reduced light. The plates were sealed with foil and incubated in the dark for additional 1 h or overnight before reading on an Envision reader. The IC50s were determined by fitting the curves using a four-parameter equation in Graphpad Prism 8.

Chain of PD-1/PD-L1 interaction (PDL1-6×His protein, PD1-Fc-Avi-Biotin protein) (Q9NZQ7 19-238 limits assumed): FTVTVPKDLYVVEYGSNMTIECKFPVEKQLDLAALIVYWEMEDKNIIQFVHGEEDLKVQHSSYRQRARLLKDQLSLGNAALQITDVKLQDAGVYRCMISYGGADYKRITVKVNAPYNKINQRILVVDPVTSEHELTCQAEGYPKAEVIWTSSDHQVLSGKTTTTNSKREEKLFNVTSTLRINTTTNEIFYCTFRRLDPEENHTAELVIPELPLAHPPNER

| Compound | pIC50 |
| --- | --- |
| O=C(O)C[C@H](O)CN1CCc2cc(-c3cccc(-c4cccc(-c5cc6c(cn5)CN(C[C@@H](O)CC(=O)O)CC6)c4Cl)c3Cl)ncc2C1 [Compound C-4] | 7.00 to 8.00 |
| Clc1c(-c2ccc3c(c2)COC32CNC2)cccc1-c1cccc(-c2ccc3c(c2)COC32CNC2)c1Cl [Compound B-12] | 5.00 to 6.00 |
| Clc1c(-c2ccc3c(c2)CNC3)cccc1-c1cccc(-c2ccc3c(c2)CNC3)c1Cl [Compound B-2] | 7.00 to 8.00 |
| Clc1c(-c2ccc3c(c2)CCNC3)cccc1-c1cccc(-c2ccc3c(c2)CCNC3)c1Cl [Compound B-1] | ≥ 8.00 |
| Fc1cc(-c2cccc(-c3cccc(-c4cc(F)c5c(c4)CCNC5)c3Cl)c2Cl)cc2c1CNCC2 [Compound B-10] | 7.00 to 8.00 |
| CC1(C)CNCc2ccc(-c3cccc(-c4cccc(-c5ccc6c(c5)C(C)(C)CNC6)c4Cl)c3Cl)cc21 [Compound B-9] | 5.00 to 6.00 |
| O=C(O)C[C@H](O)CN1CCc2cc(-c3cccc(-c4cccc(-c5ccc6c(c5)CCN(C[C@@H](O)CC(=O)O)C6)c4Cl)c3Cl)ccc2C1 [Compound C-2] | ≥ 8.00 |
| O=C(O)CNC1Cc2ccc(-c3cccc(-c4cccc(-c5ccc6c(c5)CC(NCC(=O)O)C6)c4Cl)c3Cl)cc2C1 (stereo not shown) [Compound A-5] | ≥ 8.00 |
| O=C(O)CN1CC2(C1)OCc1cc(-c3cccc(-c4cccc(-c5ccc6c(c5)COC65CN(CC(=O)O)C5)c4Cl)c3Cl)ccc12 [Compound H-4] | 7.00 to 8.00 |
| O=C(O)C[C@H](O)CN1CCc2cc(-c3cccc(-c4cccc(-c5cc(F)c6c(c5)CCN(C[C@@H](O)CC(=O)O)C6)c4Cl)c3Cl)cc(F)c2C1 [Compound C-8] | ≥ 8.00 |
| CC1Cc2cc(-c3cccc(-c4cccc(-c5ccc6c(c5)CC(C)N(C[C@@H](O)CC(=O)O)C6)c4Cl)c3Cl)ccc2CN1C[C@@H](O)CC(=O)O (stereo partly shown) [Compound C-9] | ≥ 8.00 |
| O=C(O)C[C@H](O)CN1Cc2ccc(-c3cccc(-c4cccc(-c5ccc6c(c5)CN(C[C@@H](O)CC(=O)O)C6)c4Cl)c3Cl)cc2C1 [Compound C-1] | ≥ 8.00 |
| O=C(O)CNC1CCc2cc(-c3cccc(-c4cccc(-c5ccc6c(c5)CCC6NCC(=O)O)c4Cl)c3Cl)ccc21 (stereo not shown) [Compound A-1] | ≥ 8.00 |
| O=C(O)CN1CCc2ccc(-c3cccc(-c4cccc(-c5ccc6c(c5)CN(CC(=O)O)CC6)c4Cl)c3Cl)cc2C1 [Compound H-1] | ≥ 8.00 |
| CC(=O)N1CC(N2CCOc3nc(-c4cccc(-c5cccc(-c6ccc7c(n6)OCCN(C6CN(C(C)=O)C6)C7)c5Cl)c4Cl)ccc3C2)C1 [Compound I-1] | < 5.00 |
| Clc1c(-c2ccc3c(c2)CC(N2CCOCC2)C3)cccc1-c1cccc(-c2ccc3c(c2)CC(N2CCOCC2)C3)c1Cl (stereo not shown) [Compound A-8] | 6.00 to 7.00 |
| Clc1c(-c2ccc3c(n2)OCCNC3)cccc1-c1cccc(-c2ccc3c(n2)OCCNC3)c1Cl [Compound B-5] | 6.00 to 7.00 |
| O=C1CC[C@@H](CNC2Cc3ccc(-c4cccc(-c5cccc(-c6ccc7c(c6)CC(O)C7)c5Cl)c4Cl)cc3C2)N1 (stereo partly shown) [Compound A-7] | 6.00 to 7.00 |
| Cc1c(-c2cccc(-c3cccc(-c4ccc5c(c4C)CCNC5)c3Cl)c2Cl)ccc2c1CCNC2 [Compound B-14] | 6.00 to 7.00 |
| O=C(O)CN1CCc2cc(-c3cccc(-c4cccc(-c5ccc6c(c5)CCN(CC(=O)O)C6)c4Cl)c3Cl)ccc2C1 [Compound H-2] | ≥ 8.00 |
| CCOC(=O)CN[C@H]1CCc2cc(-c3cccc(-c4cccc(-c5ccc6c(c5)CC[C@@H]6NCC(=O)OCC)c4Cl)c3Cl)ccc21 [Compound F-1] | 6.00 to 7.00 |
| CC1(C)CN(C[C@@H](O)CC(=O)O)Cc2ccc(-c3cccc(-c4cccc(-c5ccc6c(c5)C(C)(C)CN(C[C@@H](O)CC(=O)O)C6)c4Cl)c3Cl)cc21 [Compound C-7] | 6.00 to 7.00 |
| N[C@H]1CCc2cc(-c3cccc(-c4cccc(-c5ccc6c(c5)CC[C@@H]6N)c4Cl)c3Cl)ccc21 [Compound B-7] | 6.00 to 7.00 |
| CC(=O)NCCNC1Cc2ccc(-c3cccc(-c4cccc(-c5ccc6c(c5)CC(NCCNC(C)=O)C6)c4Cl)c3Cl)cc2C1 (stereo not shown) [Compound A-4] | 7.00 to 8.00 |
| Cc1c(-c2cccc(-c3cccc(-c4ccc5c(c4C)CNCC5)c3Cl)c2Cl)ccc2c1CNCC2 [Compound B-15] | 5.00 to 6.00 |
